Experimental data from patent US5719278A, “Tricyclic benzazepine vasopressin antagonists” (American Cyanamid Company, priority 1996, dated 1998).

What was measured:
Rat Hepatic V1 Receptors = molecular target: T1, Rat Hepatic V1 Receptors (Rattus norvegicus, UniProt P30560); assay: Binding Assay to Rat Hepatic V1 Receptors; details: Rat Hepatic V1 Receptors (no asterisk)
T1 construct: Rat liver plasma membranes expressing the vasopressin V1 receptor subtypes; from tissue; host or cells: rat liver plasma membranes
Procedure: Binding Assay to Rat Hepatic V1 Receptors
Rat liver plasma membranes expressing the vasopressin V1 receptor subtypes are isolated by sucrose density gradient according to the method described by Lesko et al., (1973). These membranes are quickly suspended in 50.0 mM Tris.HCl buffer, pH 7.4, containing 0.2% bovine serum albumin (BSA) and 0.1 mM phenylmethylsulfonylfluoride (PMSF) and kept frozen at -70° C. until used in subsequent binding experiments. For binding experiments, the following is added to the wells of a ninety-six well format microtiter plate: 100 μl of 100.0 mM Tris.HCl buffer containing 10.0 mM MgCl2, 0.2% heat inactivated BSA and a mixture of protease inhibitors: leupeptin, 1.0 mg %; aprotinin, 1.0 mg %, 1,10-phenanthroline,2.0 mg %; trypsin inhibitor, 10.0 mg % and 0.1 mM PMSF, 20.0 μl of [phenylalanyl-3,4,5-^3 H] vasopressin (S.A. 45.1 Ci/mmole) at 0.8 nM, and the reaction initiated by the addition of 80 μl of tissue membranes containing 20 μg of tissue protein. The plates are kept undisturbed on the bench top at room temperature for 120 min. to reach equilibrium. Non-specific samples are assayed in the presence of 0.1 μM of the unlabeled antagonist phenylalanylvasopressin, added in 20.0 μl volume to a final incubation volume of 200 μl. Upon completion of binding, the content of each well is filtered off, using a Brandel® cell Harvester (Gaithersburg, Md.). The radioactivity trapped on the filter disk by the ligand-receptor complex is assessed by liquid scintillation counting in a Packard LS Counter, with an efficiency of 65% for tritium. The data are analyzed for IC50 values by the LUNDON-2 program for competition (LUNDON SOFTWARE, Ohio).

Vasopressin V2 = Vasopressin V2 Antagonist Activity in Conscious Hydrated Rats; type: in vivo, rat; details: 10 mg/kg orally, N = 2, AVP 0.4 μg/kg intraperitoneally; for Osmolality (mOsm/kg): urine
Procedure: Vasopressin V2 Antagonist Activity in Conscious Hyrdated Rats
Conscious hydrated rats are treated with compounds under study from 0.1 to 100 mg/kg orally or vehicle. Two to four rats are used for each compound. One hour later, arginine vasopressin (AVP, antidiuretic hormone, ADH) dissolved in peanut oil is administered at 0.4 μg/kg intraperitoneally. Two rats in each test would not receive arginine vasopressin but only the vehicle (peanut oil) to serve as water-loading control. Twenty minutes later each rat is given 30 mL/kg of deionized water orally by gavage and is placed individually in a metabolic cage equipped with a funnel and a graduated glass cylinder to collect urine for four hours. Urine volume is measured and osmolality analyzed by use of a Fiske One-Ten osmometer (Fiske Assoc., Norwood, Mass. U.S.A.). Urinary sodium, potassium, and chloride are analyzed by use of ion-specific electrodes in a Beckman E3(Electrolyte 3) Analyzer.
In the following results, […] and decreased osmolality relative to AVP-control indicates activity.

[1] = molecular target: T2, V1 Receptor Subtype in Human Platelet (Homo sapiens, UniProt P37288); assay: Binding to Vasopressin V1 Receptor Subtype in Human Platelet Membranes; details: *Binding to V1 Receptor Subtype in Human Platelet
T2 construct: from tissue; host or cells: human platelets (platelet rich plasma from Hudson Valley Blood Services)
Procedure: Radioligand Binding Experiments with Human Platelet Membranes
Platelet Source: Hudson Valley Blood Services, Westchester Medical Center, Valhalla, N.Y.
Frozen platelet rich plasma (PRP), received from the Hudson Valley Blood Services are thawed to room temperature. The tubes containing the PRP are centrifuged at 16,000×g for 10 min. at 4° C. and the supernatant fluid discarded. The platelets resuspended in an equal volume of 50.0 mM Tris.HCl, pH 7.5 containing 120 mM NaCl and 20.0 mM EDTA. The suspension is recentrifuged at 16,000×g for 10 min. This washing step is repeated one more time. The wash is discarded and the lysed pellets homogenized in low ionic strength buffer of Tris.HCl, 5.0 mM, pH 7.5 containing 5.0 mM EDTA. The homogenate is centrifuged at 39,000×g for 10 min. The resulting pellet is resuspended in Tris.HCl buffer, 70.0 mM, pH 7.5 and recentrifuged at 39,000×g for 10 min. The final pellet is resuspended in 50.0 mM Tris.HCl buffer pH 7.4 containing 120 mM NaCl and 5.0 mM HCl to give 1.0-2.0 mg protein per ml of suspension.
Binding to Vasopressin V1 Receptor Subtype in Human Platelet Membranes:
In wells of a 96 well format microtiter plate, add 100 μl of 50.0 mM Tris.HCl buffer containing 0.2% BSA and a mixture of protease inhibitors (aprotinin, leupeptin etc.). Then add 20 μl of [^3 H]Ligand: (Manning or Arg^8 Vasopressin), to give final concentrations ranging from 0.01 to 10.0 nM. Initiate the binding by adding 80.0 μl of platelet suspension (approx. 100 μg protein). Mix all reagents by pipetting the mixture up and down a few times. Non-specific binding is measured in the presence of 1.0 μM of unlabeled ligand (Manning or Arg^8 Vasopressin). Let the mixture stand undisturbed at room temperature for ninety (90) min. Upon this time, rapidly filter off the incubate under vacuum suction over GF/B filters, using a Brandel® Harvester. Determine the radioactivity caught on the filter disks by the addition of liquid scintillant and counting in a liquid scintillator

T2 sequence (P37288 whole entry): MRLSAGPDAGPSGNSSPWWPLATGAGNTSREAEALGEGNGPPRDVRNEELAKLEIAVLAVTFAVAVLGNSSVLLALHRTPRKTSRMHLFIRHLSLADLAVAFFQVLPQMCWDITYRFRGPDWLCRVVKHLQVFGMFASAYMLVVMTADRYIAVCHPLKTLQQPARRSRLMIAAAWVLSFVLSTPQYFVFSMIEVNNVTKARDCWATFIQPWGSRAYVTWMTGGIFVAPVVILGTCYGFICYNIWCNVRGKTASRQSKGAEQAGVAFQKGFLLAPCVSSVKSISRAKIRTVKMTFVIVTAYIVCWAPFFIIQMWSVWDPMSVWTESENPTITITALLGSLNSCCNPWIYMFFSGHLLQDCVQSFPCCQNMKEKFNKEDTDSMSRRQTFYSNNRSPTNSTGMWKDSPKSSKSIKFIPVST
T1 sequence (P30560 whole entry): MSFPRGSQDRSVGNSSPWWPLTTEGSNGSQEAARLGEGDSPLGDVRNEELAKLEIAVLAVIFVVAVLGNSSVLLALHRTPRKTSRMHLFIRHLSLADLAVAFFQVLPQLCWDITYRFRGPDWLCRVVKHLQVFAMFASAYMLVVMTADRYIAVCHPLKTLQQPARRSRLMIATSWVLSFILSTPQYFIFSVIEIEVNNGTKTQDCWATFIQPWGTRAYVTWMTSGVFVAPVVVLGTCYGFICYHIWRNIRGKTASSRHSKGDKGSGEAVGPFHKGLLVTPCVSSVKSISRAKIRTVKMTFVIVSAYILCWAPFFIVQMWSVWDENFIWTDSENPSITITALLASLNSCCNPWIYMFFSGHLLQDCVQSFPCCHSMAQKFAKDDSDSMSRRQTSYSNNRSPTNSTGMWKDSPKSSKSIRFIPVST

IC50 (Rat Hepatic V1 Receptors) [µM] | IC50 [1] [µM] | SMILES | Urine Vol. (ml/4 hrs.) (Vasopressin V2) | Osmolality (mOsm/kg) (Vasopressin V2)
2 | – | O=C(Nc1ccc(C(=O)N2CCc3cn[nH]c3-c3sccc32)cc1)c1ccc(F)cc1Cl [Example 1, N-[4-[(4,5-Dihydropyrazolo[3,4-d]thieno[3,2-b]azepin-6(1H)-yl)carbonyl]phenyl]-2-chloro-4-fluorobenzamide] | 15.3 | 535
– | 0.101 | O=C(Nc1ccc(C(=O)N2CCc3cn[nH]c3-c3ncccc32)cc1)c1ccccc1-c1ccccc1 [Example 365, N-[4-[(4,5-Dihydropyrazolo[3,4-d]pyrido[3,2-b]azepin-6(1H)-yl)carbonyl]phenyl][1,1'-biphenyl]-2-carboxamide] | 2.6 | 251
– | 0.31 | Cc1ccc(F)cc1C(=O)Nc1ccc(C(=O)N2CCc3c[nH]nc3-c3ncccc32)cc1 [Example 367, N-[4-[4(4,5-Dihydropyrazolo[3,4-d]pyrido[3,2-b]azepin-6(1H)-yl)carbonyl]phenyl]-5-fluoro-2-methylbenzamide] | 10 | 627
